# In patent publication US6479482B2, “Alkylamine derivatives of dihydropyridine NPY antagonists” (Bristol-Myers Squibb Company, priority 2000, dated 2002):
# Legend:
# [1] = system: NPY-induced Ca^++ entry in HEL cells; settings: cited from earlier work
# [2] = system: NPY-induced contractions in guinea pig basilar artery; settings: cited from earlier work
# [3] = biological target: T1, I-125 labeled NPY and PYY in human neuroblastoma cells (Homo sapiens, UniProt P25929); settings: cited from earlier work
# T1 construct: displacing I-125 labeled NPY and PYY in human neuroblastoma cells; endogenous in cells
# T1 sequence (P25929 1-384): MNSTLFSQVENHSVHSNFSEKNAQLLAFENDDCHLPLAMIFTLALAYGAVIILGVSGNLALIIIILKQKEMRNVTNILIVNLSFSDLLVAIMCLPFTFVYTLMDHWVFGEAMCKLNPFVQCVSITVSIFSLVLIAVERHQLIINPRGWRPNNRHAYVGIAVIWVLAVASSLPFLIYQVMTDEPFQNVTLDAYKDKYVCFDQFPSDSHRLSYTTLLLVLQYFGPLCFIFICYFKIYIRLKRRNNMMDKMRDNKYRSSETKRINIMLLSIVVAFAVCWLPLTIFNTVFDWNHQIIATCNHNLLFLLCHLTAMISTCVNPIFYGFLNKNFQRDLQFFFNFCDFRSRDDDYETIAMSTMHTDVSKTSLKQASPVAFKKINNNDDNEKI
# [4] = system: NPY-related increases in diastolic blood pressure; settings: anesthetized guinea pig; cited from earlier work
# [5] = biological target: T2, I-125 Bolton-Hunter labeled NPY in human neuroblastoma cells (SK-N-MC) (Homo sapiens, UniProt P25929); settings: cited from earlier work
# T2 construct: displaces I-125 Bolton-Hunter labeled NPY in human neuroblastoma cells (SK-N-MC); endogenous in cells; host or cells: SK-N-MC human neuroblastoma cells
# T2 sequence (P25929 1-384): T1 sequence (P25929 1-384)
# [6] = system: NPY-induced increase in intracellular Ca^++ in SK-N-MC cells; settings: cited from earlier work
# [7] = system: NPY-induced pressor response; settings: pithed rat; cited from earlier work
Structure (SMILES),melting point,also measured
COC(=O)C1=C(C)NC(C)=C(C(=O)OC)C1c1cccc(NC(=O)NCCCN2CCN(C(C)C)CC2)c1.Cl.Cl,170 to 180 °C,–
COC(=O)C1=C(C)NC(C)=C(C(=O)OC)C1c1cccc(NC(=O)NCCCN2CCN(CC3CC3)CC2)c1.Cl.Cl,145 to 150 °C,–
"COC(=O)C1=C(C)NC(C)=C(C(=O)OC)C1c1cccc(NC(=O)NCCCN2CCC3(CC2)OCCO3)c1 [Example 14, 4-[3-[[[[3-(1,4-Dioxa-8-azaspiro[4.5]decan-8-yl)propyl]amino]carbonyl]-amino]phenyl]-1,4-dihydro-2,6-dimethyl-3,5-pyridinedicarboxylic acid, dimethyl ester]",100 to 105 °C,–
CCCN1CCN(CCCNC(=O)Nc2cccc(C3C(C(=O)OC)=C(C)NC(C)=C3C(=O)OC)c2)CC1.Cl.Cl,190 to 200 °C,–
COC(=O)C1=C(C)NC(C)=C(C(=O)OC)C1c1cccc(NC(=O)NCCCN2CCN(CC(C)C)CC2)c1.Cl.Cl,165 to 170 °C,–
N=C(NCCCc1cnc[nH]1)NCCC(c1cc(F)cc(F)c1)c1ccccn1 (stereo not shown) [He 90481],–,"pA2, antagonism of NPY-induced Ca++ entry [1]: 4.43"
"COC(=O)C1=C(C)NC(C)=C(C(=O)OC)C1c1cccc(NC(=O)NCCCN2CCN(C(=O)OC(C)(C)C)CC2)c1 [Example 13, 4-[3-[[[[3-[4-[(1,1-Dimethylethoxy)carbonyl]-1-piperazinyl]propyl]amino]-carbonyl]amino]phenyl]-1,4-dihydro-2,6-dimethyl-3,5-pyridinedicarboxylic acid, dimethyl ester]",125 to 130 °C,–
"COC(=O)C1=C(C)NC(C)=C(C(=O)OC)C1c1ccc(F)c(NC(=O)NCCCN2CCC(C(C)(C)C)CC2)c1 [Example 21, 4-[4-Fluoro-3-[[[[3-[4-(1,1-dimethylethyl)-1-piperidinyl]propyl]amino]-carbonyl]amino]phenyl]-1,4-dihydro-2,6-dimethyl-3,5-pyridinedicarboxylic acid, dimethyl ester]",191 to 193 °C,–
CCN1CCN(CCCNC(=O)Nc2cccc(C3C(C(=O)OC)=C(C)NC(C)=C3C(=O)OC)c2)CC1.Cl.Cl,120 to 125 °C,–
COC(=O)C1=C(C)NC(C)=C(C(=O)OC)C1c1cccc(NC(=O)NCCCN2CCN(C3CCCC3)CC2)c1.Cl.Cl,195 to 200 °C,–
"O=P(O)(O)OC1[C@H](OP(=O)(O)O)[C@H](O)C(O)[C@H](O)[C@H]1OP(=O)(O)O (stereo partly drawn) [D-Myo-inositol-1,2,6-triphosphate]",–,antagonism of NPY-induced contractions [2]: potent but non-competitive antagonist
CN(C)CC1CCC(CN=C(N)c2ccc(C[C@@H](NC(=O)[C@@H](Cc3ccccc3)NS(=O)(=O)c3ccc4ccccc4c3)C(=O)N3CCCC3)cc2)CC1 (stereo partly shown) [SR 120819A],–,displacement of I-125 labeled NPY and PYY [3]: displacing; antagonism of NPY-related increases in diastolic blood pressure [4]: antagonized
COC(=O)C1=C(C)NC(C)=C(C(=O)OC)C1c1cccc(NC(=O)NCCCN2CCN(C(C)(C)C)CC2)c1.Cl.Cl,175 to 180 °C,–
COC(=O)C1=C(C)NC(C)=C(C(=O)OC)C1c1cccc(NC(=O)NCCCN2CCNCC2)c1.Cl.Cl,120 to 130 °C,–
NC(N)=NCCC[C@@H](NC(=O)C(c1ccccc1)c1ccccc1)C(=O)NCc1ccc(O)cc1 [BIBP 3226],–,displacement of I-125 Bolton-Hunter labeled NPY [5]: displaces; antagonism of NPY-induced increase in intracellular Ca++ [6]: antagonized; antagonism of NPY-induced pressor response [7]: antagonizing
COC(=O)C1=C(C)NC(C)=C(C(=O)OC)C1c1cccc(NC(=O)NCCCN2CCC(=O)CC2)c1.Cl,70 to 75 °C,–
"COC(=O)C1=C(C)NC(C)=C(C(=O)OC)C1c1ccc(F)c(NC(=O)NCCCN2CCC(C)CC2)c1 [Example 17, 4-[4-Fluoro-3-[[[[3-(4-methyl-1-piperidinyl)propyl]amino]carbonyl]-amino]phenyl]-1,4-dihydro-2,6-dimethyl-3,5-pyridinedicarboxylic acid, dimethyl ester]",188 to 190 °C,–
"COC(=O)C1=C(C)NC(C)=C(C(=O)OC)C1c1ccc(F)c(NC(=O)NCCCN2CCC(C(C)C)CC2)c1 [Example 20, 4-[4-Fluoro-3-[[[[3-[4-(1-methylethyl)-1-piperidinyl]propyl]amino]-carbonyl]amino]phenyl]-1,4-dihydro-2,6-dimethyl-3,5-pyridinedicarboxylic acid, dimethyl ester]",176 to 179 °C,–
CCCCN1CCN(CCCNC(=O)Nc2cccc(C3C(C(=O)OC)=C(C)NC(C)=C3C(=O)OC)c2)CC1.Cl.Cl,145 to 150 °C,–
